# Measurements reported in patent US20080009415A1, “Fungicidal Mixtures” (BASF Aktiengesellschaft, priority 2004, published 2008).
# Tested on: Alternaria solani
# Assay: Activity against early blight of tomato caused by Alternaria solani
# Assay type: in vivo
# Conditions: single active compound, leaves sprayed to runoff, infected next day, assessed after 5 days, efficacy in % of untreated control (Abbot)
# Method: The active compounds were prepared separately or jointly as a stock solution with 25 mg of active compound which was made up to 10 ml using a mixture of acetone and/or DMSO and the emulsifier Uniperol®) EL (wetting agent having emulsifying and dispersing action based on ethoxylated alkylphenols) in a volume ratio of solvent/emulsifier of 99 to 1. The mixture was then made up with water to 100 ml. This stock solution was diluted with the solvent/emulsifier/water mixture described to the concentration of active compounds stated below.
# The visually determined percentages of infected leaf areas were converted into efficacies in % of the untreated control:
# The efficacy (E) is calculated as follows using Abbot's formula: E=(1−α/β)·100 α corresponds to the fungicidal infection of the treated plants in % and β corresponds to the fungicidal infection of the untreated (control) plants in % An efficacy of 0 means that the infection level of the treated plants corresponds to that of the untreated control plants; an efficacy of 100 means that the treated plants were not infected.
# The expected efficacies of mixtures of active compounds were determined using Colby's formula (Colby, S. R. “Calculating synergistic and antagonistic responses of herbicide combinations”, Weeds, 15, 20-22, 1967) and compared with the observed efficacies.
# Colby's formula: E=x+y−x·y/100
# E expected efficacy, expressed in % of the untreated control, when using the mixture of the active compounds A and B at the concentrations a and b x efficacy, expressed in % of the untreated control, when using the active compound A at the concentration a y efficacy, expressed in % of the untreated control, when using the active compound B at the concentration b Use Example—Activity Against Early Blight of Tomato Caused by Alternaria solani Leaves of potted plants of the cultivar “Goldene Königin” were sprayed to runoff point with an aqueous suspension having the concentration of active compound stated below. […]
SMILES,Observed efficacy (%) (Conc. 4 ppm),Observed efficacy (%) (Conc. 1 ppm)
"CO/C=C(/C(=O)OC)c1ccccc1CO/N=C(C)/C=C/c1ccc(Cl)cc1 [enestroburin (I), methyl 2-{2-[3-(4-chlorophenyl)-1-methylallylideneaminooxymethyl]phenyl}-3-methoxyacrylate]",22,–
"COc1cc(C)c(C(=O)c2c(OC)ccc(Br)c2C)c(OC)c1OC [metrafenone (II-41), 3′-bromo-2,3,4,6′-tetramethoxy-2′,6-dimethylbenzophenone]",0,0
